Results taken from patent publication US4810702A, “Antibacterial agent for mammal use comprising cephalosporin derivatives as an effective ingredient” (Meiji Seika Kaisha, Ltd., priority 1986, dated 1989).
≈ marks a conversion by molar mass, not a printed value. Structures can show the parent of a compound that is named as a salt. Where two headings read alike, the source gives them in different places.

How the values were obtained:
[1] = tested on: Bacillus subtilis ATCC6633; experiment: Minimum growth inhibitory concentration, Test Example 1; assay type: cell-based
Description: (§1) The minimum growth inhibitory concentration (MIC) against various bacteria was measured in a bacterial count of 10^6 CFU/ml using medium SDA (NISSUI) in accordance with the Japan Chemotherapy Association.

[2] = tested on: Citrobacter freundii GN346/16-10; experiment: as above; assay type: cell-based; details: GN346, read-out: Minimum Growth Inhibitory Concentration MIC
Description: as §1

[3] = tested on: Citrobacter freundii GN346/16; experiment: as above; assay type: cell-based
Description: as §1

[4] = tested on: Citrobacter freundii GN346; experiment: as above; assay type: cell-based
Description: as §1

[5] = tested on: Escherichia coli 255/S-1; experiment: as above; assay type: cell-based; details: 255/S1, 10^6 CFU/ml, medium SDA
Description: as §1

[6] = tested on: Escherichia coli 255; experiment: as above; assay type: cell-based; details: 10^6 CFU/ml, medium SDA
Description: as §1

[7] = tested on: Escherichia coli W3630 RGN238; experiment: as above; assay type: cell-based; details: W3630RGN238, read-out: Minimum Growth Inhibitory Concentration MIC
Description: as §1

[8] = tested on: Escherichia coli W3630 RGN823; experiment: as above; assay type: cell-based; details: W3630RGN823, read-out: Minimum Growth Inhibitory Concentration MIC
Description: as §1

[9] = tested on: Pseudomonas aeruginosa IAM-1007; experiment: as above; assay type: cell-based
Description: as §1

[10] = tested on: Pseudomonas aeruginosa M-0148; experiment: as above; assay type: cell-based
Description: as §1

[11] = tested on: Pseudomonas aeruginosa Ml Rms139; experiment: as above; assay type: cell-based; details: MLRMS139, read-out: Minimum Growth Inhibitory Concentration MIC
Description: as §1

[12] = tested on: Staphylococcus aureus Smith (I); experiment: as above; assay type: cell-based; details: read-out: Minimum Growth Inhibitory Concentration MIC
Description: as §1

[13] = tested on: Staphylococcus epidermidis ATCC 14990; experiment: as above; assay type: cell-based
Description: as §1

[14] = tested on: Escherichia coli GN206; experiment: Minimum growth inhibitory concentration; assay type: cell-based
Description: as §1

[15] = tested on: Escherichia coli No. 29; experiment: MIC of the infecting strain, Table 2; assay type: cell-based
Description: as §1

[16] = tested on: Klebsiella pneumoniae PCI 602; experiment: MIC of the infecting strain, Table 2; assay type: cell-based; details: PCI602
Description: as §1

[17] = tested on: Pseudomonas aeruginosa GN10362; experiment: MIC of the infecting strain, Table 2; assay type: cell-based
Description: as §1

[18] = tested on: Escherichia coli GN206; experiment: Effect to prevent infections in mice, Test Example 6; assay type: in vivo, ICR strain male mice; details: mouse, i.p. infection 9.5 × 10^6 CFU/mouse with mucin; s.c. one hour after; 7 days
Description: (§2) The culture solution of each test bacterium was adjusted to a bacterial concentration shown in the table and then supplemented with 2.5% (W/V) of mucin. The solution was intraperitoneally administered to ICR strain male mice (mean body weight of 20 g, 4 weeks old) of one group being 8 at a dose of 0.5 ml to experimentally cause infection. Each test compound was subcutaneously administered one hour after (provided that in case of Pseudomonas aeruginosa was given one hour and 3 hours after). Observation was made for 7 days.

[19] = tested on: Escherichia coli No. 29; experiment: as above; assay type: in vivo, ICR strain male mice; details: mouse, i.p. infection 2.3 × 10^5 CFU/mouse with mucin; s.c. one hour after; 7 days
Description: as §2

[20] = tested on: Klebsiella pneumoniae PCI 602; experiment: as above; assay type: in vivo, ICR strain male mice; details: mouse, i.p. infection 6.5 × 10^4 CFU/mouse with mucin; s.c. one hour after; 7 days
Description: as §2

[21] = tested on: Pseudomonas aeruginosa GN10362; experiment: as above; assay type: in vivo, ICR strain male mice; details: mouse, i.p. infection 8.8 × 10^5 CFU/mouse with mucin; s.c. one hour and 3 hours after; 7 days
Description: as §2

[22] = Acute toxicity test, Test Example 5; assay type: in vivo; details: mouse, in vivo, iv; ICR male mice, tail vein; 14 days
Description: (§3) 75 mg of each test compound was dissolved in 0.4 ml of phuysiological saline. The solution was administered to the tail vein of ICR strain male mice (mean body weight of 25 g, 5 weeks old) of one group being 3 mice. Observation was made for 14 days.

[23] = tested on: ICR strain male mice; experiment: Acute toxicity test, Test Example 5; assay type: in vivo; details: for survival: ICR male mice, 75 mg in 0.4 ml, tail vein, 14 days
Description: as §3

[24] = tested on: clinically isolated Klebsiella pneumoniae, Proteus vulgaris and Pseudomonas aeruginosa; experiment: Distribution in sensitivity of clinically isolated strains, Test Examples 2 to 4; assay type: cell-based; details: compared to known compounds
Description: Each MIC of various bacteria clinically isolated from patients was measured in a manner similar to Test Example 1 and its percentage to the all strains to reach the inhibitory concentration was accumulatively expressed .
Distribution in sensitivity to pneumobacilli clinically isolated.
Distribution in sensitivity to variant clinically isolated.
Distribution in sensitivity to Pseudomonas aeruginosa clinically isolated.

[25] = Concentration in blood plasma (rat) and in serum (common marmoset), Test Examples 7 and 8; assay type: in vivo, SD strain male rats; female common marmosets; details: various animal tests
Description: A test compound was dissolved in physiological saline in a concentration of 20 mg/ml. The solution was given in the tail vein of SD strain male rats (mean body weight of 325 g) of one group being 4 in a dose of 1 ml/kg. Blood was collected from the femoral artery in course of time and blood plasma was isolated from the blood. A concentration of the test compound in blood plasma was quantitatively assayed by high performance liquid chromatography. A test compound was dissolved in 0.05M phosphate buffer (pH 6.5) in a concentration of 2.0 mg/ml. The solution was intramuscularly administered to female common marmosets of one group being 2 in a dose of 5 ml/kg. Blood was collected from the femoral artery with passage of time and serum was separated from the blood followed by quantitative assay by bioassay using Escherichia coli K-12 HW 8236 as a bacterium for the assay.

[26] = tested on: Escherichia coli, pneumobacilli and Pseudomons aeruginosa; experiment: Effect to prevent infections, overall comparison with known compounds, Test Example 6; assay type: in vivo, ICR strain male mice; details: compared to the known compounds (CAZ, HR-810)
Description: as §2

[27] = Citrobacter freundii, GN346, read-out: Minimum Growth Inhibitory Concentration MIC
[28] = Bacillus subtilis ATCC6633, 10^6 CFU/ml, medium SDA, read-out: Minimum Growth Inhibitory Concentration MIC
[29] = Citrobacter freundii GN346/16, 10^6 CFU/ml, medium SDA, read-out: Minimum Growth Inhibitory Concentration MIC
[30] = Citrobacter freundii GN346, 10^6 CFU/ml, medium SDA, read-out: Minimum Growth Inhibitory Concentration MIC
[31] = IAM1007, Pseudomonas aeruginosa IAM-1007, 10^6 CFU/ml, medium SDA, read-out: Minimum Growth Inhibitory Concentration MIC
[32] = M0148, Pseudomonas aeruginosa M-0148, 10^6 CFU/ml, medium SDA, read-out: Minimum Growth Inhibitory Concentration MIC
[33] = Staphylococcus aureus Smith (I), 10^6 CFU/ml, medium SDA
[34] = ATCC14990, Staphylococcus epidermidis ATCC 14990, 10^6 CFU/ml, medium SDA, read-out: Minimum Growth Inhibitory Concentration MIC
[35] = Escherichia coli GN206, Table 1, 10^6 CFU/ml, medium SDA, read-out: Minimum Growth Inhibitory Concentration MIC
[36] = Klebsiella pneumoniae PCI 602, Table 2, read-out: MIC

Structure (SMILES)	MIC [5]	MIC [6]	MIC [7]	MIC [8]	MIC [11]	MIC [15]	ED50 (preventive effect) [18]	ED50 (preventive effect) [19]	ED50 (preventive effect) [20]	ED50 (preventive effect) [21]	LD50 at 336 h [22]	survival [23]	MIC [1, 28]	MIC [3, 29]	MIC [4, 30]	MIC [9, 31]	MIC [10, 32]	MIC [12, 33]	MIC [13, 34]	MIC [14, 35]	further results
CC(C)(ON=C(C(=O)NC1C(=O)N2C(C(=O)[O-])=C(C[n+]3ccccc3)CSC12)c1csc(N)n1)C(=O)O [CAZ, (6R, 7R)-7-[(Z)-2-(2-aminothiazol-4-yl)-2-(2-methylcarboxyisoprop;oxyimino)acetamido]-3-pyridinium-1-ylmethyl-ceph-3-em-4-carboxylate]	0.39 mg/L (≈ 0.714 µM)	12.5 mg/L (≈ 22.9 µM)	0.2 mg/L (≈ 0.366 µM)	0.2 mg/L (≈ 0.366 µM)	0.78 mg/L (≈ 1.43 µM)	0.2 mg/L	1.0 mg/mouse	0.006 mg/mouse	0.57 mg/mouse	8 mg/mouse	≥ 4000 mg/kg	survived									MIC ([1]; Bacillus subtilis, ATCC6633, read-out: Minimum Growth Inhibitory Concentration MIC): 3.13 mg/L (≈ 5.73 µM); MIC [2]: 25 mg/L (≈ 45.7 µM); MIC [3, 27]: 0.78 mg/L (≈ 1.43 µM); MIC [4, 27]: 25 mg/L (≈ 45.7 µM); MIC ([9]; Pseudomonas aeruginosa, IAM1007, read-out: Minimum Growth Inhibitory Concentration MIC): 0.78 mg/L (≈ 1.43 µM); MIC ([10]; Pseudomonas aeruginosa, M0148, read-out: Minimum Growth Inhibitory Concentration MIC): 1.56 mg/L (≈ 2.85 µM); MIC ([12]; Staphylococcus aureus): 3.13 mg/L (≈ 5.73 µM); MIC ([13]; Staphylococcus epidermidis, ATCC14990, read-out: Minimum Growth Inhibitory Concentration MIC): 3.13 mg/L (≈ 5.73 µM); MIC ([14]; Escherichia coli, GN206): 1.56 mg/L (≈ 2.85 µM); MIC ([14]; Escherichia coli, GN206, read-out: Minimum Growth Inhibitory Concentration MIC): 1.56 mg/L (≈ 2.85 µM); MIC ([16]; Klebsiella pneumoniae): 0.2 mg/L; MIC ([17]; Pseudomonas aeruginosa, GN10362): 1.56 mg/L
CC[n+]1ccc(SCC2=C(C(=O)[O-])N3C(=O)[C@@H](NC(=O)/C(=N\O[C@@H](C)C(=O)O)c4csc(N)n4)[C@H]3SC2)cc1 [Compound I, (6R, 7R)-7-[(Z)-2-(2-aminothiazol-4-yl)-2-{(1S)-carboxyethoxyimino}acetamido]-3-(1-ethylpyridinium-4-ylthiomethyl)-ceph-3-em-4-carboxylate monosodium salt]	0.1 mg/L	0.2 mg/L	0.2 mg/L	0.05 mg/L	0.78 mg/L	0.1 mg/L	0.36 mg/mouse	0.002 mg/mouse	0.33 mg/mouse	4.5 mg/mouse	≥ 4000 mg/kg	survived	3.13 mg/L	0.39 mg/L	6.25 mg/L	0.78 mg/L	0.78 mg/L	1.56 mg/L	3.13 mg/L	0.1 mg/L	MIC ([14]; Escherichia coli GN206, Table 2, read-out: MIC): 0.2 mg/L; MIC [16, 36]: 0.05 mg/L; MIC ([17]; Pseudomonas aeruginosa GN10362, Table 2, read-out: MIC): 1.56 mg/L; toxicity (in words) ([23]; various animal tests): low toxicity; distribution in sensitivity to clinically isolated strains (in words) [24]: much more excellent antibacterial activity over a wide range; durability in a concentration to exhibit the antibacterial activity (in words) [25]: sufficient durability in a concentration to exhibit the antibacterial activity; transfer into blood and organ (in words) [25]: rapidly transferred into blood and organ; effect to prevent infections compared to the known compounds (in words) [26]: equal to or superior to them
CON=C(C(=O)NC1C(=O)N2C(C(=O)[O-])=C(C[n+]3cccc4c3CCC4)CSC12)c1csc(N)n1 [HR-810, (6R, 7R)-7-[(Z)-2-(2-aminothiazol-4-yl)-2-(methoxyimino)acetamido]-3-cyclopentenopyridinium-1-ylmethyl-ceph-3-em-4-carboxylate]	0.05 mg/L (≈ 0.0972 µM)	0.2 mg/L (≈ 0.389 µM)	0.78 mg/L (≈ 1.52 µM)	0.1 mg/L (≈ 0.194 µM)	3.13 mg/L (≈ 6.08 µM)	0.05 mg/L		0.006 mg/mouse	1.3 mg/mouse		≥ 4000 mg/kg	survived	0.1 mg/L (≈ 0.194 µM)	0.05 mg/L (≈ 0.0972 µM)	0.78 mg/L (≈ 1.52 µM)	12.5 mg/L (≈ 24.3 µM)	12.5 mg/L (≈ 24.3 µM)	0.39 mg/L (≈ 0.758 µM)	0.39 mg/L (≈ 0.758 µM)	< 0.025 mg/L	MIC [16, 36]: 0.05 mg/L
